# Source: ChEMBL document CHEMBL1151426, “Pharmacodynamics of doxycycline in a murine malaria model” (Antimicrob Agents Chemother, 2007)
# Calls of active or inactive are those of the source. The rule behind the calls is not given here.
# Assays:
# [1] = system: Mus musculus; experiment: Toxicity in Plasmodium berghei ANKA infected Swiss mice (Mus musculus) assessed as median time for adverse effect at 30 mg/kg, intraperitoneally administered as single dose 64 hrs after infection measured after 24 hrs; type: organism-based; set-up: dose 30 mg/kg, route intraperitoneal; details: in vivo, ip
# [2] = system: Plasmodium berghei; experiment: Antimalarial activity as parasitaemia nadir after 24 hrs against Plasmodium berghei ANKA infected Swiss mice (Mus musculus) at 30 mg/kg intraperitoneal single dose 64 hrs post infection; type: functional
# [3] = system: Plasmodium berghei; experiment: Antimalarial activity as reduced parasitaemia after 24hrs against Plasmodium berghei ANKA infected Swiss mice (Mus musculus) at 30 mg/kg intraperitoneal single dose 64 hrs post infection; type: functional, organism-based; set-up: dose 30 mg/kg
# [4] = system: Plasmodium berghei; experiment: Antimalarial activity as parasitaemia against Plasmodium berghei ANKA infected Swiss mice (Mus musculus) at 30 mg/kg intraperitoneal single dose 64 hrs post infection (Rvb=2.5%+/-0.5%); type: functional
# [5] = system: Mus musculus; experiment: Toxicity in Plasmodium berghei ANKA infected Swiss mice (Mus musculus) assessed as median time for adverse effect at 90 mg/kg, intraperitoneally administered at 1,12 and 24 hrs after 64 hrs postinfection; type: organism-based; set-up: dose 90 mg/kg, route intraperitoneal; details: in vivo, ip
# [6] = system: Mus musculus; experiment: Toxicity in Plasmodium berghei ANKA infected Swiss mice (Mus musculus) assessed as discomfort at 180 mg/kg, intraperitoneally administered as single dose 64 hrs after infection; type: organism-based; set-up: dose 180 mg/kg, route intraperitoneal; details: in vivo, ip
# [7] = Half life in Plasmodium falciparum infected human at 200 mg/day, perorally after 7 days; type: ADME, organism-based; details: in vivo, po
# [8] = system: Mus musculus; experiment: Toxicity in Plasmodium berghei ANKA infected Swiss mice (Mus musculus) assessed as adverse effect at 90 mg/kg, intraperitoneally administered at 1,12 and 24 hrs after 64 hrs postinfection; type: organism-based; set-up: dose 90 mg/kg, route intraperitoneal; details: in vivo, ip
# [9] = system: Plasmodium berghei; experiment: Antimalarial activity as parasitaemia nadir against Plasmodium berghei ANKA infected Swiss mice (Mus musculus) at 90 mg/kg intraperitoneal dose 65, 76 and 88 hrs post infection; type: functional
# [10] = Half life in Plasmodium falciparum infected human dosed every 24 hrs after 48 hrs of infection; type: ADME, organism-based; details: in vivo
# [11] = system: Plasmodium berghei; experiment: Antimalarial activity as reduced parasitaemia against Plasmodium berghei ANKA infected Swiss mice (Mus musculus) up to 180 mg/kg intraperitoneal single dose 64 hrs post infection; type: functional, organism-based; set-up: dose 180 mg/kg
# [12] = system: Plasmodium berghei; experiment: Antimalarial activity as parasitaemia against Plasmodium berghei ANKA infected Swiss mice (Mus musculus) at 90 mg/kg intraperitoneal dose 65, 76 and 88 hrs post infection (Rvb=2.5%+/-0.5%); type: functional
# [13] = system: Plasmodium berghei; experiment: Antimalarial activity as reduced parasitaemia against Plasmodium berghei ANKA infected Swiss mice (Mus musculus) at 90 mg/kg intraperitoneal dose at 65, 76 and 88 hrs post infection; type: functional, organism-based; set-up: dose 90 mg/kg
# [14] = Half life in healthy mouse at 50 mg/kg; type: ADME, organism-based; set-up: dose 50 mg/kg; details: in vivo
SMILES,Activity [1] [days],Activity [2] [%],Activity [3],Activity [4] [%],Time [5] [days],Activity [6],half-life [7] [h],Activity [8],Activity [9] [%],half-life [10] [h],Activity [11],Activity [12] [%],Activity [13],half-life [14] [h]
C[C@H]1[C@@H](O)O[C@@H]2O[C@@]3(C)CC[C@H]4[C@H](C)CC[C@@H]1[C@@]24OO3 [ARTENIMOL],1,0.53,Active,2.6,–,–,–,–,–,–,–,–,–,–
C[C@H]1c2cccc(O)c2C(=O)C2=C(O)[C@]3(O)C(=O)C(C(N)=O)=C(O)[C@@H](N(C)C)[C@@H]3[C@@H](O)[C@@H]21.O [DOXYCYCLINE],–,–,–,–,6,Toxic,14,Non-toxic,0.06,10.5,inactive,3,Active,2.8
